Common to all, as to format: functional
The test system of experiment [1] is Escherichia coli. Kind of experiment: Antimicrobial activity against Escherichia coli ATCC 25922 at 50 ug/ml after 24 to 48 hr by agar diffusion method. To be noted: read-out: DIZ.
Experiment [2] has as its system Pseudomonas aeruginosa. Put plainly: Antimicrobial activity against Pseudomonas aeruginosa ATCC […] at 50 ug/ml after 24 to 48 hr by agar diffusion method. Particulars: read-out: DIZ.
Experiment [3] relates to Escherichia coli. Put plainly: Antimicrobial activity against Escherichia coli ATCC 25922 after 24 hr by broth dilution method. To be noted: ATCC 25922, 24 h.
Experiment [4] relates to Pseudomonas aeruginosa. Kind of experiment: Antimicrobial activity against Pseudomonas aeruginosa ATCC […] after 24 hr by broth dilution method.
The subject of experiment [5] is Staphylococcus aureus. Put plainly: Antimicrobial activity against Staphylococcus aureus ATCC 29213 after 24 hr by broth dilution method. Particulars: ATCC 29213, 24 h.
The subject of experiment [6] is Bacillus subtilis. Kind of experiment: Antimicrobial activity against Bacillus subtilis ATCC […] after 24 hr by broth dilution method.
For experiment [7], the system named is Staphylococcus aureus. Kind of experiment: Antimicrobial activity against Staphylococcus aureus ATCC 29213 at 50 ug/ml after 24 to 48 hr by agar diffusion method. Particulars: read-out: DIZ.
Experiment [8] concerns Bacillus subtilis. Kind of experiment: Antimicrobial activity against Bacillus subtilis ATCC […] at 50 ug/ml after 24 to 48 hr by agar diffusion method. Particulars: read-out: DIZ.
Experiment [9] relates to Nakaseomyces glabratus. Put plainly: Antimicrobial activity against Candida glabrata ATCC 10233 by broth dilution method.
Experiment [10] concerns Candida albicans. Kind of experiment: Antimicrobial activity against Candida albicans ATCC 10231 by broth dilution method.
In experiment [11] the test system is Nakaseomyces glabratus. Put plainly: Antimicrobial activity against Candida glabrata ATCC 10233 at 100 ug/ml after 24 to 48 hr by agar diffusion method. To be noted: read-out: DIZ.
The subject of experiment [12] is Candida albicans. Kind of experiment: Antimicrobial activity against Candida albicans ATCC 10231 at 100 ug/ml after 24 to 48 hr by agar diffusion method. To be noted: read-out: DIZ.
Experiment [13] concerns Escherichia coli. Kind of experiment: Antimicrobial activity against Escherichia coli ATCC 25922 at 100 ug/ml after 24 to 48 hr by agar diffusion method. To be noted: read-out: DIZ.
Experiment [14] has as its system Pseudomonas aeruginosa. Kind of experiment: Antimicrobial activity against Pseudomonas aeruginosa ATCC […] at 100 ug/ml after 24 to 48 hr by agar diffusion method. To be noted: read-out: DIZ.
The subject of experiment [15] is Staphylococcus aureus. Kind of experiment: Antimicrobial activity against Staphylococcus aureus ATCC 29213 at 100 ug/ml after 24 to 48 hr by agar diffusion method. To be noted: read-out: DIZ.
The test system of experiment [16] is Bacillus subtilis. Put plainly: Antimicrobial activity against Bacillus subtilis ATCC […] at 100 ug/ml after 24 to 48 hr by agar diffusion method. To be noted: read-out: DIZ.

≈ marks a conversion by molar mass, not a printed value.

Take `CC1(C)S[C@@H]2[C@H](NC(=O)[C@H](N)c3ccc(O)cc3)C(=O)N2[C@H]1C(=O)O` [AMOXICILLIN]: the zone of inhibition at 50 µg/mL amounted to 30 mm in experiment [1], 21 mm in [2], 30 mm in experiment [7] and 25 mm in experiment [8]. Besides, the MIC in [3] turned out to be 3.12 µg/mL (≈ 8.54 µM); in experiment [4] it was 6.25 µg/mL (≈ 17.1 µM); in experiment [5], 3.12 µg/mL (≈ 8.54 µM); in [6] it was 6.25 µg/mL (≈ 17.1 µM). The MIC50 in experiment [3] stood at 1.6 µg/mL (≈ 4.38 µM); in experiment [4], 3.2 µg/mL (≈ 8.76 µM); in experiment [5], 1.62 µg/mL (≈ 4.43 µM); in experiment [6], 3.2 µg/mL (≈ 8.76 µM).

On to `CCCCN(CCCC)Cc1cccc(/C=N\NC(=O)c2ccncc2)c1OCC`, for which the MFC in experiment [9] and in experiment [10] was 100 µg/mL (≈ 244 µM) each time. For the same compound, the MIC in experiment [9] was 12.5 µg/mL (≈ 30.4 µM); in experiment [10] it was 25 µg/mL (≈ 60.9 µM); in [3], 12.5 µg/mL (≈ 30.4 µM); in experiment [4], 12.5 µg/mL (≈ 30.4 µM); in experiment [5], 12.5 µg/mL (≈ 30.4 µM); in [6], 25 µg/mL (≈ 60.9 µM). The MIC50 worked out at 12.8 µg/mL (≈ 31.2 µM) in experiment [9]; 12.8 µg/mL (≈ 31.2 µM) in experiment [10]; 6.4 µg/mL (≈ 15.6 µM) in [3]; 6.4 µg/mL (≈ 15.6 µM) in experiment [4]; 6.4 µg/mL (≈ 15.6 µM) in [5]; 12.8 µg/mL (≈ 31.2 µM) in experiment [6]. Also, the zone of inhibition at 100 µg/mL in experiment [11] was 15 mm; in [12], 15 mm; in [13], 24 mm; in experiment [14], 19 mm; in experiment [15] it was 23 mm; in [16], 21 mm.
